The test system of series [1] is acute myelogenous leukemia. The settings on record: valspodar arm, enrollment halted; cited from earlier work.
The target of series [2] is T1, P-gp (Homo sapiens, UniProt P08183).
T1 construct: Pharmacodynamic assessments of cellular P-gp function were conducted using an accumulation assay with DiOC2 and flow cytometry; endogenous in cells; host or cells: circulating NK cells and leukemic blasts from AML patients
Kind of series: cellular P-gp function, DiOC2 accumulation assay with flow cytometry on circulating NK cells and leukemic blasts. The format is in vivo, Patients with AML. The protocol: Cytarabine was also administered (100 mg/m^2/day) starting after the first dose of daunorubicin as a continuous intravenous infusion on days 1-7. Blood samples were taken at intervals for pharmacokinetic and pharmacodynamic studies. Pharmacokinetic drug determinations were conducted by HPLC. Pharmacodynamic assessments of cellular P-gp function were conducted using an accumulation assay with DiOC2 and flow cytometry. P-gp function was assessed on circulating natural killer (NK) cells and leukemic blasts. […] Means of 3 patients for each time point are shown.

The conditions of series [3]: several oncolytics, preclinical models; cited from earlier work.

SMILES strings stand for the structures.

T1 sequence (P08183 whole entry): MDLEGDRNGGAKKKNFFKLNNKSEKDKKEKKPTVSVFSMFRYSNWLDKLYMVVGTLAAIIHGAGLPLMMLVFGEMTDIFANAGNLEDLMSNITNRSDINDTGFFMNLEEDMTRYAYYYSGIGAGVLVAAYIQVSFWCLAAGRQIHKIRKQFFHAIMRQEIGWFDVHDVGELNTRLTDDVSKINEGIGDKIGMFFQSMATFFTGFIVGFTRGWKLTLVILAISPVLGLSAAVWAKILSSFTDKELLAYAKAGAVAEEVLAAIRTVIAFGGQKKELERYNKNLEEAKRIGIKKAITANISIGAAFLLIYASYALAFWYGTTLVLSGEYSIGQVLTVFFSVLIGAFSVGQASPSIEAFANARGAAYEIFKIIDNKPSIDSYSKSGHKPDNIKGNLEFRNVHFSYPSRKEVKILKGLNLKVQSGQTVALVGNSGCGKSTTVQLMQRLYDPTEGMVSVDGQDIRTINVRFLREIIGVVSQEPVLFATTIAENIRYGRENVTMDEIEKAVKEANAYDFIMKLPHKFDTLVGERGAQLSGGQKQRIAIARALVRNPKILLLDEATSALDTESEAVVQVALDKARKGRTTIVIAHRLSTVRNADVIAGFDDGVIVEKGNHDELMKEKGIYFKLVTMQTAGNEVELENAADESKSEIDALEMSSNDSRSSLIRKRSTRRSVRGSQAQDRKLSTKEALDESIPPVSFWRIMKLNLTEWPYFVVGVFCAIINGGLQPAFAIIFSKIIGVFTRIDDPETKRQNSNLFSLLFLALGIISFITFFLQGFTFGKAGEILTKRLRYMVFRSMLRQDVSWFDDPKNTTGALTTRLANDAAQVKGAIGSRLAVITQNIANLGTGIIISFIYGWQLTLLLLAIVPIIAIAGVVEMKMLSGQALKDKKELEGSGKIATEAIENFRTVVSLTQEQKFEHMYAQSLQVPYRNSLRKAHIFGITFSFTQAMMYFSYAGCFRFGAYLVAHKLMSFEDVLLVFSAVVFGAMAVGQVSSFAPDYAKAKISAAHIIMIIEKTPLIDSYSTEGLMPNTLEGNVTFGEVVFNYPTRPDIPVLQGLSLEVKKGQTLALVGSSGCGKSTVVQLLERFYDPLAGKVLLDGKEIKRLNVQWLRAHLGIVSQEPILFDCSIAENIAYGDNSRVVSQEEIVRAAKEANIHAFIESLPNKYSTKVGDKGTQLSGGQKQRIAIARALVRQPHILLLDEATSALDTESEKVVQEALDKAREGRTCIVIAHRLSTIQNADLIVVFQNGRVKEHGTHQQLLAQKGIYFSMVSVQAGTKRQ

With `C/C=C/C[C@@H](C)C(=O)[C@H]1C(=O)N[C@@H](C(C)C)C(=O)N(C)CC(=O)N(C)[C@@H](CC(C)C)C(=O)N[C@@H](C(C)C)C(=O)N(C)[C@@H](CC(C)C)C(=O)N[C@@H](C)C(=O)N[C@H](C)C(=O)N(C)[C@@H](CC(C)C)C(=O)N(C)[C@@H](CC(C)C)C(=O)N(C)[C@@H](C(C)C)C(=O)N1C` [valspodar], in series [1], the early mortality entry is “excessive early mortality”.

On to `O[C@@H](COc1cccc2ncccc12)CN1CCN([C@@H]2c3ccccc3[C@@H]3[C@H](c4ccccc42)C3(F)F)CC1` [Zosuquidar], for which the “time to potent inhibition of P-gp function after start of zosuquidar infusion” value in series [2] (700 mg/day continuous intravenous infusion) was not above 2 h. In addition, the “duration of inhibition of P-gp functional activity after zosuquidar infusion was halted” value in series [2] (after 72 hour infusion) is “at least 12 hours”. Also, in series [3], the “pharmacokinetic (PK) interactions with oncolytics” value is given as “minimal”.

The record behind these values is patent publication US20070010465A1 (priority 2005, published 2007).
